Entries after “also recorded” stand apart in the source; their conditions may differ.
Legend:
[1] = Stability in aqueous conditions by LC/MS; format: physicochemical
Description: Next, to directly address the stability of Stomidazolone in the aqueous condition we used for our bioassays, we performed liquid chromatography-mass spectrometry (LC/MS) (Supplementary Fig. 4). Stomidazolone was incubated in the 1/2 MS liquid medium (pH 5.7) at room temperature for 48 hours. […] Additionally, we tested Stomidazolone’s stability in phosphate buffer (pH 7.0).
Stomidazolone in 1/2 MS liquid media (pH 5.7) or phosphate buffer (pH 7.0) was detected by LC (Agilent 1200, Agilent Technologies, Santa Clara, USA) coupled to a single quadrupole mass spectrometer (Agilent 6130) equipped with an APCI-ES source. For the stability assay of Stomidazolone, the analytical samples were prepared as follows: 100 μL 5 mM Stomidazolone in DMSO was diluted with 900 μL 1/2MS (pH5.7) or 50 mM Phosphate buffer (pH 7.0). The Stomidazolone solutions were incubated at room temperature with rotating. At 0 or 48 hr after incubation, the 10 μL of solution were collected, diluted with water: acetonitrile;= 50:50, and applied to LC/MS. […] The mobile phase consisted of 5 mM ammonium formate: acetonitrile = 80:20 at a flow rate of 0.6 mL/min. in isocratic mode, and detected by mass spectrometry (MS). […] The electrospray ionization mass spectra (ESI-MS) recorded in the mass-to-charge ratio range from m/z 80–1000 was collected. […]

SCRM-SPCH heterodimer = biological target: T1, SCRM-SPCH heterodimer (Arabidopsis thaliana, UniProt Q700C7); format: cell-based; conditions: 100 μM, 1 day
T1 construct: heterodimerization of SCRM with full-length SPCH, MUTE, or FAMA in the context of the plant cells; combinations of split YFP constructs fused to the full-length stomatal bHLH proteins; nYFP (N terminus of EYFP, 174 amino acids); cYFP (C terminus of EYFP, 64 amino acids); expressed in transfected cells; host or cells: Nicotiana benthamiana leaves (Agrobacterium infiltration)
T1 sequence (Q700C7 1-364): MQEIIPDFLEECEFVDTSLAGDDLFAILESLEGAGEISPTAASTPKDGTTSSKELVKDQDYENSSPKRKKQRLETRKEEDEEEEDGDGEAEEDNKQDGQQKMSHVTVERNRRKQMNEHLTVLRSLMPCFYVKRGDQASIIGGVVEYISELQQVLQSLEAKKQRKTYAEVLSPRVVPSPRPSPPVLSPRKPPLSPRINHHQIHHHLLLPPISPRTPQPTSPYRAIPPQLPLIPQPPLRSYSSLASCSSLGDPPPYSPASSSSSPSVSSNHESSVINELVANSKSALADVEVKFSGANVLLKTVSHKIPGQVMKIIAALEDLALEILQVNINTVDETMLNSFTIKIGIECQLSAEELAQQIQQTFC
Excerpt: For ratiometric BiFC assays, the cDNAs of SPCH, MUTE, and FAMA were cloned into the 35S CaMV promoter-driven destination vector pSPYNE, which contains the N terminus of the EYFP protein (nYFP-174 amino acids), while the cDNA of SCRM and SCRM2 was inserted into pSPYCE, which contains the C terminus of the EYFP protein (cYFP-64 amino acids) (see Supplementary Table 5 for detailed information of the constructs). The constructs were then transformed into Agrobacterium tumefaciens strain GV3101. The Agrobacterium was resuspended in infiltration buffer (10 mM MgCl2, 10 mM 2-(N-morpholino)ethanesulfonic acid [pH 5.6], and 150 µM acetosyringone). Bacterial culture densities were adjusted to a final optical density (OD600) of 1.0, and the cell suspensions were incubated at room temperature for 4 hours prior to infiltration. Equal volumes of cultures carrying the corresponding complementary pair of BiFC constructs (YFPn and YFPc), along with CaMV35S::Histone H2B-mScarlet-I3 and the silencing suppressor plasmid p19 (a gift from Dr. Sir David Baulcombe) were mixed and then co-infiltrated into 4-week-old N. benthamiana leaves. The infiltrated N. benthamiana leaves were incubated at 25 °C for 2 days. Subsequently, leaf discs were cut out and cultured in mock or in liquid 1/2 MS media in mock (DMSO) or 100 µM Stomidazolone for 1 day. Confocal imaging of N. benthamiana leaves was performed using a Leica SP8 confocal microscope using a 20X objective lens (Leica Microsystems), simultaneously capturing YFP (excitation at 518 nm and emission at 530 nm) and mScarlet-I3 (excitation at 569 nm and emission at 600 nm) differential interference contrast channels.

[2] = system: Commelina benghalensis stomatal opening induced by light; assay: Measurement of stomatal opening; format: in vivo; conditions: 50 µM; light 3 h (Supplementary Fig. 1)
Description: The experiments were performed as described previously[30],[68]. Briefly, Stomidazolone or ABA were added to a multi-well plate with basal buffer [5 mM MES/bistrispropane (pH 6.5), 50 mM KCl, and 0.1 mM CaCl2] to be diluted to a final concentration of 50 or 20 µM, respectively. C. benghalensis plants were incubated in the dark overnight; then, 4 mm diameter leaf discs were excised from fully expanded leaves using a hole punch (Biopsy Punch, Kai Medical). Samples were immersed in a basal buffer containing compounds for 30 min before being exposed to light (150 µmol m^−2 s^−1 red light and 50 µmol m^−2 s^−1 blue light) for 3 h. The stomatal apertures were observed using a stereoscopic microscope (BX43; Olympus). The microscopic images were acquired with a charge-coupled device (CCD) camera (DP27; Olympus), followed by autofocus image processing using cellSens standard software (Olympus). Measurement of stomatal apertures of C. benghalensis was performed by using an automation program, DeepStomata[69].

With `O=C1C(c2ccccc2)=NC(NS(=O)(=O)c2ccccc2)(c2ccccc2)N1S(=O)(=O)c1ccccc1` (stereo not shown) [Stomidazolone] the “stability in 1/2 MS liquid medium (LC/MS)” value ([1]; pH 5.7, room temperature, 48 hours) was “no lzx103 peak (2.13 min) was detected”, the “stability in phosphate buffer (LC/MS)” value ([1]; pH 7.0, room temperature, 48 h) was “did not detect the degradation” and the “effect on heterodimerization, YFP/RFP signal ratio (in words)” value (SCRM-SPCH heterodimer) was “weakly affecting”. The “effect on stomatal movement (in words)” value [2] was “did not exhibit any discernable effects; also recorded: does not affect”.

— article PMC11500415, “Chemical inhibition of stomatal differentiation by perturbation of the master-regulatory bHLH heterodimer via an ACT-Like domain” (Nature Communications, 2024)
